Measured values as given in US20240269139A1, “COMPOUNDS FOR TARGETED PROTEIN DEGRADATION OF KINASES” (DANA-FARBER CANCER INSTITUTE, INC., priority 2020, published 2024).
Where two headings read alike, the source gives them in different places.

Assays:
Assay type in all cases: cell-based
[1] = biological target: protein kinases (human kinome) (Homo sapiens, UniProt P00519)
[2] = biological target: protein kinases (human kinome) (Homo sapiens, UniProt Q92918)
[3] = biological target: T1, protein kinases (human kinome) (Homo sapiens, UniProt Q8IVH8); settings: for logFC: MAP4K3 Q8IVH8; for logFC MAP4K3: MAP4K3 Q81VH8
T1 sequence (Q8IVH8 1-894): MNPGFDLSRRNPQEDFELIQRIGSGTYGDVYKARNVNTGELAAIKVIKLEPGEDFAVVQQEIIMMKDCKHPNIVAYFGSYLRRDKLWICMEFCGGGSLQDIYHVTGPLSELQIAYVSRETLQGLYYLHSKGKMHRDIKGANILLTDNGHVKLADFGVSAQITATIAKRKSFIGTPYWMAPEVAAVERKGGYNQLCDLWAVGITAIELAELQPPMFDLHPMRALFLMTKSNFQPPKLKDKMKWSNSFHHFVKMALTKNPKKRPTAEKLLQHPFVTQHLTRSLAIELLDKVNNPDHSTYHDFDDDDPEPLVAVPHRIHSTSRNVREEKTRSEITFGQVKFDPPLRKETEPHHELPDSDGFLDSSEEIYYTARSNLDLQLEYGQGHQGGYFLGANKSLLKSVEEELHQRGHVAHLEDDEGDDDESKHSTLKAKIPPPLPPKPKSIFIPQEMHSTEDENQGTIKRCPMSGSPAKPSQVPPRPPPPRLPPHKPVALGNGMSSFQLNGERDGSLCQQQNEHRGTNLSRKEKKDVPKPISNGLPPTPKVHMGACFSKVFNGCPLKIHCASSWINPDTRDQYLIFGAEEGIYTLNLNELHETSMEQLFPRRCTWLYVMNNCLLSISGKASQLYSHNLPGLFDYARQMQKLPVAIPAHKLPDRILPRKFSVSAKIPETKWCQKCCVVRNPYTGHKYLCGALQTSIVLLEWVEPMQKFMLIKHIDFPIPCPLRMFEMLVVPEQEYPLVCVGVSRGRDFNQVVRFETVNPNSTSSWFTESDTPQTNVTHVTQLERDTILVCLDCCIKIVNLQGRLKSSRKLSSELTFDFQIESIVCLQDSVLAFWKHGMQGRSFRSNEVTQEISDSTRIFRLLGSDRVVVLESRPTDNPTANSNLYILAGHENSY

[4] = biological target: protein kinases (human kinome) (Homo sapiens, UniProt O94921)
Chain of protein kinases (human kinome) (Homo sapiens, UniProt O94921) (O94921 whole entry): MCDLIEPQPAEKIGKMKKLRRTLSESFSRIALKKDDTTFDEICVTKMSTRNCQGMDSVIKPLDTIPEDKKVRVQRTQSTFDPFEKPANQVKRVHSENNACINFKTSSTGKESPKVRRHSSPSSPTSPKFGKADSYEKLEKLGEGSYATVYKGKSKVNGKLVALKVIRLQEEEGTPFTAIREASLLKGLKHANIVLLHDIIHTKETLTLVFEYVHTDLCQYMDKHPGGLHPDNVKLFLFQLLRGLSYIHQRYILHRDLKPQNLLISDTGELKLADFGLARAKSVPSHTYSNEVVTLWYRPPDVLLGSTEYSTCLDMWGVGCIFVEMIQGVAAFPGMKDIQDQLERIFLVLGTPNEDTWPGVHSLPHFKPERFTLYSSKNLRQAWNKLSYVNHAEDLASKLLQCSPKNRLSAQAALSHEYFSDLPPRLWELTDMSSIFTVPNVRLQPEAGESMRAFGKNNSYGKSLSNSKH

[5] = biological target: protein kinases (human kinome) (Homo sapiens, UniProt Q7KZI7)
Chain of protein kinases (human kinome) (Homo sapiens, UniProt Q7KZI7) (Q7KZI7 whole entry): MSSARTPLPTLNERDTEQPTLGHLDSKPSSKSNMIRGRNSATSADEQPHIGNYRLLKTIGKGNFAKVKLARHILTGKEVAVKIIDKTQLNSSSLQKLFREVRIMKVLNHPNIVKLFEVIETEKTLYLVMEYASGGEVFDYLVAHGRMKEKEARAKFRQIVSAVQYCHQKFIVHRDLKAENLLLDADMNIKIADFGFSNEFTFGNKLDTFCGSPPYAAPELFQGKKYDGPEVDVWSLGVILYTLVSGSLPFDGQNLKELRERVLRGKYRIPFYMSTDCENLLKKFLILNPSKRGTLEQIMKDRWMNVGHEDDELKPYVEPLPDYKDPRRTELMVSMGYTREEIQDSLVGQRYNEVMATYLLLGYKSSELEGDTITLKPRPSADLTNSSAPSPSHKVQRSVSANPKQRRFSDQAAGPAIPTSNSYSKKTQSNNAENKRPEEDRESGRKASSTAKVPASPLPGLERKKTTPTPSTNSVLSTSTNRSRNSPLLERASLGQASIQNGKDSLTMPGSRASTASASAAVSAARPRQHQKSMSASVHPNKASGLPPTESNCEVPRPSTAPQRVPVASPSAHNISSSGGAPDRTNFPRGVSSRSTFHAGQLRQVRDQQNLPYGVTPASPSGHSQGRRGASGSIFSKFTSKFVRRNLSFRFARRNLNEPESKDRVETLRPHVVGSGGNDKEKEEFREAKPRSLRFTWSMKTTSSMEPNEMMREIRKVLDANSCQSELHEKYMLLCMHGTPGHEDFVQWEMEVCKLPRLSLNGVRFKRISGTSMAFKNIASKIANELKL

Chain of protein kinases (human kinome) (Homo sapiens, UniProt P00519) (P00519 whole entry): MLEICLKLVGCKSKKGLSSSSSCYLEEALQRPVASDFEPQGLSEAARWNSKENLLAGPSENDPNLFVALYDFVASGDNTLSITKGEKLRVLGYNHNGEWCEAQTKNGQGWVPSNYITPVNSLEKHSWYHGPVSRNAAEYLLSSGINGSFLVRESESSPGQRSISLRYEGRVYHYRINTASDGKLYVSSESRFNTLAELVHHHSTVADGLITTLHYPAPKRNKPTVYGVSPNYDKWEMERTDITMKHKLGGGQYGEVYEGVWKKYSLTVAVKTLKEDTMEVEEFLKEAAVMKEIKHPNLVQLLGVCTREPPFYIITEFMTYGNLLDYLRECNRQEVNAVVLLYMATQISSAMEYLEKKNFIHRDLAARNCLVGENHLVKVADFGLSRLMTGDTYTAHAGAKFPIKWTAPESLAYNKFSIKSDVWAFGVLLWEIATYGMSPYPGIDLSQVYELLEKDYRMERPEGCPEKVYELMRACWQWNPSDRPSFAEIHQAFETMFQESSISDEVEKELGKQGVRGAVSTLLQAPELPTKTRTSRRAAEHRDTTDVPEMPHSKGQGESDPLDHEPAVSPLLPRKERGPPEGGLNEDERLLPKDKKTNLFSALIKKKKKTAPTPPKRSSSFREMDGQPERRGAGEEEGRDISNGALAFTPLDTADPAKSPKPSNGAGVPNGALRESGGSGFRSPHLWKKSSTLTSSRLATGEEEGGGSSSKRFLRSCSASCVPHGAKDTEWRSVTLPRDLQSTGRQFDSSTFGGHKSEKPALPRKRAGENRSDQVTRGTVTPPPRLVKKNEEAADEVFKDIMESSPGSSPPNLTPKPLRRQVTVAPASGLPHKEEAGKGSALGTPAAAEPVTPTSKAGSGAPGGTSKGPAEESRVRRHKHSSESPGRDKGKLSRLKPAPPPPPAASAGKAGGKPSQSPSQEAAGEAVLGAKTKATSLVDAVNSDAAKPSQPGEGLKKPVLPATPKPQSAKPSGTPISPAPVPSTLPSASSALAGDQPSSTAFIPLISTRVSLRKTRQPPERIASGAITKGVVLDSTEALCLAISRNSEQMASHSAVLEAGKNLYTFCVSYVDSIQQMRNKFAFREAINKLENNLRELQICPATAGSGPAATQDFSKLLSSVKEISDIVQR
Chain of protein kinases (human kinome) (Homo sapiens, UniProt Q92918) (Q92918 whole entry): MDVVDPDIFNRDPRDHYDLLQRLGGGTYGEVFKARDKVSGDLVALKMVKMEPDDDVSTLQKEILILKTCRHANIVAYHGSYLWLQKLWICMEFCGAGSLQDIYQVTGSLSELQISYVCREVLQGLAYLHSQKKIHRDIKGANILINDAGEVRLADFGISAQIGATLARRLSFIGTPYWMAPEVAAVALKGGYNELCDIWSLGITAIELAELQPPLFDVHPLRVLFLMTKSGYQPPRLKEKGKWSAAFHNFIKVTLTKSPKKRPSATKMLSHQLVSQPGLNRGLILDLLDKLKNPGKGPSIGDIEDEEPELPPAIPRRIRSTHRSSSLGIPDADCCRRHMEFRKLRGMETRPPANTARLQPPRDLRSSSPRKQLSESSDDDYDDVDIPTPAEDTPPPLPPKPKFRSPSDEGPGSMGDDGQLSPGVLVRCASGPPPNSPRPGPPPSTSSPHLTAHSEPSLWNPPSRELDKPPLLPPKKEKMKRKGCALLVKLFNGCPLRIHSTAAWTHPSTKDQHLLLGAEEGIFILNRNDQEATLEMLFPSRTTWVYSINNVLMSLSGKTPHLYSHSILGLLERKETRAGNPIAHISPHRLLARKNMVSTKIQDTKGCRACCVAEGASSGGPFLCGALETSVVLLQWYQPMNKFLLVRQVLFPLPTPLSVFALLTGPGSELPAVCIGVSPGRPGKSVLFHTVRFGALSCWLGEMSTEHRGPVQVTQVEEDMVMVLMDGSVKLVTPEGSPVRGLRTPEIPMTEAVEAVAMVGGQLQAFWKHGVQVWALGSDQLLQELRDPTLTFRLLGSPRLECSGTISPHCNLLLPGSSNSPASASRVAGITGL

Cc1ccc(NC(=O)c2cccc(C(F)(F)F)c2)cc1N1Cc2cnc(Nc3ccc(N4CCN(CCCCC(=O)N[C@H](C(=O)N5C[C@H](O)C[C@H]5C(=O)N[C@@H](C)c5ccc(-c6scnc6C)cc5)C(C)(C)C)CC4)nc3)nc2N(C)C1=O [DB1113]
logFC of ABL1 (P00519) ([1]; Experiment wp168): −1.014
logFC ABL1 (P00519) ([1]; experiment wp168): −1.014
logFC MAP4K1 (Q92918) ([2]; experiment wp168): −0.8463
logFC ([3]; experiment wp168): −1.385
logFC MAP4K3 ([3]; experiment wp168): −1.385

CC(C)S(=O)(=O)c1ccccc1Nc1nc(Nc2ccc(N3CCN(CCOCCNC(=O)CNc4cccc5c4C(=O)N(C4CCC(=O)NC4=O)C5=O)CC3)cc2)ncc1Cl (centres unmarked) [SK.3.91]
logFC ABL1 (P00519) ([1]; experiment wp160, 4 hr): −0.3545
logFC of ABL1 (P00519) ([1]; experiment wp160, 4 hr): −0.3545
logFC ([4]; CDK14 (O94921-1), experiment wp172): −0.8176
logFC of CDK14 (O94921-1) ([4]; Experiment wp172): −0.8176
logFC MAP4K1 (Q92918) ([2]; experiment wp016, 1 uM): −0.6677
logFC MAP4K1 (Q92918) ([2]; experiment wp103): −0.5099
logFC MAP4K1 (Q92918) ([2]; experiment wp107): −0.7036
logFC MAP4K1 (Q92918) ([2]; experiment wp133, 4 hr): −0.5528
logFC MAP4K1 (Q92918) ([2]; experiment wp160, 4 hr): −0.4817
logFC ([3]; experiment wp105): −0.571
logFC ([3]; experiment wp107): −0.8456
logFC ([3]; experiment wp133, 4 hr): −0.6321
logFC ([3]; experiment wp172): −0.7962
logFC MAP4K3 ([3]; experiment wp105): −0.571
logFC MAP4K3 ([3]; experiment wp107): −0.8456
logFC MAP4K3 ([3]; experiment wp133, 4 hr): −0.6321
logFC MAP4K3 ([3]; experiment wp172): −0.7962
logFC ([5]; MARK2 (Q7KZI7-1), experiment wp107, direction down): −0.5266
logFC ([5]; MARK2 (Q7KZI7-1), experiment wp172, direction down): −0.6351
logFC ([5]; MARK2 Q7KZI7-1, experiment wp107): −0.5266
logFC ([5]; MARK2 Q7KZI7-1, experiment wp172): −0.6351
